From article PMC11203957, “Naphthoquinone-Quinolone Hybrids with Antitumor Effects on Breast Cancer Cell Lines—From the Synthesis to 3D-Cell Culture Effects” (International Journal of Molecular Sciences, 2024)

Experiments:
topoisomerase II = tested on: topoisomerase II; design: method as in PMID 24858098; details: in vitro and in silico studies; cited from earlier work
[1] = tested on: gastric cancer cells ACP03; design: method as in PMID 24858098; details: cited from earlier work
MDA-MB-231 cells [2] = assay: Annexin V/PI apoptosis assay, MDA-MB-231; type: cell-based, human; details: 50 µM
Description: (§1) We investigated apoptosis induction through the annexin V/PI protocol, as described in Section 3. Doxorubicin, 1,4-naphthoquinone, and cisplatin were used as controls. […] For MDA-MB-231 cells (Figure 5B), the effects observed were more prominent at the concentrations tested.
(§2) For the apoptosis assay, the manufacturer’s instructions were followed (Dead Cell Apoptosis Kit with Annexin V for Flow Cytometry, Thermo Fisher Scientific, MA, USA). The cells were analyzed in a Countess II FL cell counter (Thermo Fisher Scientific, Waltham, MA, USA).
(§3) Figure 5 Naphthoquinone-quinolone hybrids induce apoptosis in MCF-7 (A) and MDA-MB-231 (B) cells at different levels.

MCF-7 cells [3] = assay: Annexin V/PI apoptosis assay, MCF-7; type: cell-based, human; details: 50 µM
Description: as §1, §2, §3

MCF10A = assay: MTT cell viability assay, non-tumor MCF10A; details: Homo sapiens, MCF-10A, 24 h, read-out: IC50 ± SEM MCF10A
MDA-MB-231 = assay: MTT cell viability assay, MDA-MB-231 (2D culture); type: cell-based, human; details: for IC50: Homo sapiens, MDA-MB-231, MTT, 24 h treatment, 2D culture, read-out: IC50 ± SEM MDA-MB-231; for SI IC50 MCF10A/ IC50 MDA-MB-231: selectivity index
Description: (§4) Our first approach to assessing the anticancer activity of the novel 1,4-naphthoquinone/4-quinolone conjugates 11a–f on breast cancer cells involved comparing their effects in the MTT cell viability assay to determine the half-maximal inhibitory concentration (IC50) in the 2D cell culture model. Doxorubicin and 1,4-naphthoquinone were used as controls. Concentration-response curves were obtained with the conjugates at concentrations ranging from 0 to 200 µM. […] This observation aligns with the structural characteristics of this derivative, which features the largest alkyl substituent at position R^1.
(§5) The IC50 values were calculated using GraphPad Prism v. 8.0.1, and the selectivity index was estimated as the ratio between the IC50 value of MCF10A/IC50 value of MDA-MB-231 or MCF-7 [33], for each compound.

MCF-7 [4] = assay: MTT cell viability assay, MCF-7 (2D culture); type: cell-based, human; details: for IC50: Homo sapiens, MCF7, MTT, 24 h treatment, 2D culture, read-out: IC50 ± SEM MCF-7; for SI IC50 MCF10A/IC50 MCF-7: selectivity index
Description: as §4, §5

MCF-7 [5] = assay: Clonogenic assay, MCF-7; type: cell-based, human; details: 25 µM, 24 h treatment, about 14 days growth
Source text: (§6) The clonogenic assay is an effective tool for investigating individual cells’ ability to form colonies. Tumor cells with the ability to generate an expanding family of descendants are clonogenic. Therefore, a clonogenic assay is a simple method to verify one of the important characteristics of cancer cells, which is the ability to detach from the site of origin and to form metastases in other locations. […] For instance, 90–99% of the tumor cells in FaDU tumors, a type of human squamous cell carcinoma observed in nude mice, are non-clonogenic. To achieve the main goal of cancer treatment, which is tumor eradication, it is necessary to inactivate all clonogenic cells through either cell killing or the induction of a permanent state of dormancy, thereby eliminating their clonogenic capacity. The assessment of the potential of a drug to achieve a curative outcome, i.e., effectively neutralizing clonogenic tumor cells, requires the utilization of experimental endpoints that accurately reflect the response of clonogenic cells. Clonogenic endpoints hold particular significance when novel anticancer agents are incorporated into curative therapeutic regimens, such as in combination with radiotherapy or chemotherapy. Thus, clonogenic assays were conducted for compounds 11a–f and 1,4-naphthoquinone.
(§7) Figure 6 The inhibition of colony formation by compounds 11a–f using MCF-7 (A,C) and MDA-MB-231 (B,D) cell lines. Cells were treated with derivatives 11a–f at 25 µM for 24 h. Subsequently, 400 cells were plated on 6-well plates for approximately 14 days. Then, cells were stained with crystal violet dye to visualize the colonies formed.

MDA-MB-231 cells [6] = assay: Reversibility assay (MTT viability), MDA-MB-231; type: cell-based, human; details: 25 µM; 24 h, 24 + 24 h, 48 h
Description: (§8) Our next issue concerned the reversibility of the effects: whether they persisted through a longer time of treatment, or if they ceased after the removal of the treatments. To investigate this, we used each compound at 25 µM and treated the MCF-7 and MDA-MB-231 cells for 24 h and 48 h. The 48-h treatment group was further subdivided into two different categories: the first was treated for 24 h, after which the culture medium was replaced with fresh medium without the compound, and then incubated for an additional 24-h period (24 + 24 h). In the second category, cells were continuously exposed to the compound for the entire 48-h duration, without any handling during this period. Cell viability was assessed as the evaluation parameter. The results are shown in Figure 7A (MCF-7) and Figure 7B (MDA-MB-231). […] In MCF-7 cells, the effect observed is similar, with a lower intensity of apoptosis induction.
(§9) Figure 7 Reversibility assay: investigating the effects of treatment durability on cell viability of (A) MCF-7 cells and (B) MDA-MB-231 cells. Cells were treated in three different manners: (1) for 24 h, continuously; (2) for 24 h, followed by removal of the treatment and addition of fresh medium, then further cultivation for 24 h; and (3) for a total period of 48 h. Cell viability was measured using the MTT assay. * p < 0.05, Student’s t-test, n = 3.

MDA-MB-231 cells [7] = assay: Clonogenic assay, MDA-MB-231; type: cell-based, human; details: 25 µM, 24 h treatment, about 14 days growth
Source text: as §6, §7

MCF-7 spheroids = assay: 3D-cell culture (spheroids), morphology and acid phosphatase viability, MCF-7; type: cell-based, human; details: 25 µM, 48 h
Source text: 3D-cell cultures display features that resemble in vivo tumors: due to their tridimensional structure, cells are not provided with the same amounts of oxygen and nutrients in the center as on the surface, resulting in a gradient that leads to the formation of a necrotic core, similar to the in vivo tumor environment. In the 3D-cell culture model used here, spheroids are formed due to low interaction with the microplate bottom, promoted by its coating with agarose, and strong cell-to-cell interactions in MCF-7 cells, generating a finely compact and homogeneous spheroid. For MDA-MB-231 cells, the addition of collagen I is an extra stimulus necessary for spheroid stabilization. Spheroids were prepared and grown for 48 h and then treated with the compounds at 25 µM. After 48 h, morphological changes were observed, and their viabilities were measured as described in Section 3. The exposure to the compounds for 48 h promoted visible changes in the morphologies of spheroids for both cell lines when compared to the controls (Figure 8). […] While it is more complicated to imply changes in the proliferative (surface) region of the MDA-MB-231 spheroids (Figure 8B), they are observed together with morphological changes after treatment, making them appear more crumbly and lose their round shape. These findings are in line with the viability test, which detected a reduction in the viabilities for all of them, which is significant compared to the control (p < 0.05), except for 11a in MDA-MB-231 spheroids (Figure 8C,D). We should also highlight that the concentrations necessary for an effect on spheroids are expected to be higher when compared to 2D-cell culture models. Here, we observed changes using 25 µM of each compound, as performed in the other experiments.
The procedure was performed as described by Gong et al., with a few modifications. A total of 5000 cells per well were plated on 96-well plates with bottoms previously covered with 50 µL of a 1% agarose solution. The plates were then centrifuged at 300× g for 10 min. For MDA-MB-231 cells, collagen I from rat tail (Gibco) was added to a 3 µg/mL final concentration in the cell suspension. […] The cell spheroids/aggregates were treated with fresh medium added to the compounds and their viability was evaluated after 48 h. Spheroids were photographed with an inverted microscope Bel INV-100 (Bel Engineering, Monza, Italy) equipped with a digital camera.
To measure spheroids viability, this viability assay was performed following Friedrich et al.. The medium was removed from wells and spheroids were washed with PBS. Then, 100 µL of a solution containing 2 mg/mL p-nitrophenyl phosphate (PNPP), 0.1 M citric acid, and 0.1% (v/v) Triton X, pH 5.0 were added. […]

MCF-7 cells [8] = assay: Reversibility assay (MTT viability), MCF-7; type: cell-based, human; details: 25 µM; 24 h, 24 + 24 h, 48 h
Description: as §8, §9

[9] = tested on: hepatocellular carcinoma (BEL7402); design: method as in PMID 22406451; details: cited from earlier work
[10] = tested on: cervix adenocarcinoma (HeLa); design: method as in PMID 22406451; details: cited from earlier work

SMILES | IC50 (MDA-MB-231) [µM] | melting point [°C] | IC50 (MCF-7 [4]) [µM] | topoisomerase II activity inhibition (topoisomerase II) | IC50 [1] [µM] | apoptosis profile (annexin V/PI), MDA-MB-231 (MDA-MB-231 cells [2]) | early apoptosis induction (annexin V/PI), MCF-7 (MCF-7 cells [3]) | IC50 (MCF10A) [µM] | SI IC50 MCF10A/ IC50 MDA-MB-231 (MDA-MB-231) | SI IC50 MCF10A/IC50 MCF-7 (MCF-7 [4]) | colony formation, MCF-7 (MCF-7 [5]) | duration and reversibility of the effect on cell viability, MDA-MB-231 (MDA-MB-231 cells [6]) | colony formation, MDA-MB-231 (MDA-MB-231 cells [7]) | spheroid morphology, MCF-7 (MCF-7 spheroids) | duration and reversibility of the effect on cell viability, MCF-7 (MCF-7 cells [8]) | IC50 [9] [µM] | IC50 [10] [µM]
Cc1ccc(NC(=O)c2c[nH]c3ccc(Cl)cc3c2=O)cc1 [Compound 2a] | – | – | – | able to inhibit topoisomerase II activity | 1.92 | – | – | – | – | – | – | – | – | – | – | – | –
N.N.[Cl][Pt][Cl] [cisplatin] | – | – | – | – | – | lower effect | comparable | – | – | – | – | – | – | – | – | – | –
O=C(Nc1cc(Cl)ccc1Cl)c1c[nH]c2ccc(Cl)cc2c1=O [Compound 2b] | – | – | – | able to inhibit topoisomerase II activity | 5.18 | – | – | – | – | – | – | – | – | – | – | – | –
O=C1C=CC(=O)c2ccccc21 [1,4-Naphthoquinone, 1,4-naphthoquinone, reference compound] | 19.3 ± 1.1 | – | 29.5 ± 1 | – | – | – | comparable | 8.78 ± 1.1 | 0.46 ± 0.14 | 0.30 ± 0.13 | Significant reductions in colony formation | irreversible effect | Significant reductions in colony formation | changes in the morphology | irreversible effect | – | –
COc1cccc2c1C(=O)c1c(O)c3c(c(O)c1C2=O)C[C@@](O)(C(=O)CO)C[C@@H]3O[C@H]1C[C@H](N)[C@H](O)[C@H](C)O1 [Doxorubicin, reference compound] | 2.76 ± 1.2 | – | 14.2 ± 1.1 | – | 0.274 | effects similar to those seen on MCF-7 cells | shows early apoptosis but also shows late apoptosis/necrosis in a great proportion | 1.49 ± 1.3 | 0.54 ± 0.10 | 0.10 ± 0.09 | – | – | – | changes in the morphology | – | 19.3 ± 1.2 | 21.1 ± 1.9
CCCCCCCCC/C=C\CCCCc1cc(=O)c2ccccc2n1C [Compound 3] | – | – | – | – | – | – | – | – | – | – | – | – | – | – | – | 15.8 ± 1.4 | 18.5 ± 1.2

The next lines start with results.

IC50 (MDA-MB-231) [µM] | melting point [°C] | IC50 (MCF-7 [4]) [µM] | SMILES | topoisomerase II activity inhibition (topoisomerase II) | IC50 [1] [µM] | apoptosis profile (annexin V/PI), MDA-MB-231 (MDA-MB-231 cells [2]) | early apoptosis induction (annexin V/PI), MCF-7 (MCF-7 cells [3]) | IC50 (MCF10A) [µM] | SI IC50 MCF10A/ IC50 MDA-MB-231 (MDA-MB-231) | SI IC50 MCF10A/IC50 MCF-7 (MCF-7 [4]) | colony formation, MCF-7 (MCF-7 [5]) | duration and reversibility of the effect on cell viability, MDA-MB-231 (MDA-MB-231 cells [6]) | colony formation, MDA-MB-231 (MDA-MB-231 cells [7]) | spheroid morphology, MCF-7 (MCF-7 spheroids) | duration and reversibility of the effect on cell viability, MCF-7 (MCF-7 cells [8]) | IC50 [9] [µM] | IC50 [10] [µM]
24.1 ± 1.1 | > 300 | 65.7 ± 1.1 | CCCCCn1cc(C(=O)O)c(=O)c2cc(C3=CC(=O)c4ccccc4C3=O)ccc21 [Compound 11f, 6-(1,4-dioxo-1,4-dihydronaphthalen-2-yl)-4-oxo-1-pentyl-1,4-dihydroquinoline-3-carboxylic acid] | – | – | – | – | 6.92 ± 1.1 | 0.29 ± 0.16 | 0.11 ± 0.16 | most effective | – | – | – | – | – | –
20.1 ± 1.1 | > 300 | 25.1 ± 1.2 | CCn1cc(C(=O)O)c(=O)c2cc(C3=CC(=O)c4ccccc4C3=O)ccc21 [Compound 11d, 6-(1,4-dioxo-1,4-dihydronaphthalen-2-yl)-1-ethyl-4-oxo-1,4-dihydroquinoline-3-carboxylic acid] | – | – | – | – | 21.5 ± 1.2 | 1.07 ± 0.08 | 0.85 ± 0.07 | – | – | most effective | changes in the morphology | – | – | –
16.4 ± 1.1 | – | 32.8 ± 1.1 | CCCCCn1cc(C(=O)OCC)c(=O)c2cc(C3=CC(=O)c4ccccc4C3=O)ccc21 [Compound 11c, Ethyl 6-(1,4-dioxo-1,4-dihydronaphthalen-2-yl)-4-oxo-1-pentyl-1,4-dihydroquinoline-3-carboxylate] | – | – | induces apoptosis | – | 10.2 ± 1.1 | 0.62 ± 0.12 | 0.31 ± 0.11 | most effective | not capable of sustaining the antitumor effect after 48 h of treatment | – | – | short effect | – | –
15.1 ± 1 | – | 19.4 ± 1.1 | CCOC(=O)c1cn(Cc2ccccc2)c2ccc(C3=CC(=O)c4ccccc4C3=O)cc2c1=O [Compound 11b, Ethyl 1-benzyl-6-(1,4-dioxo-1,4-dihydronaphthalen-2-yl)-4-oxo-1,4-dihydroquinoline-3-carboxylate] | – | – | – | comparable | 10.7 ± 1.3 | 0.71 ± 0.14 | 0.55 ± 0.13 | – | – | – | – | – | – | –
